Data taken from US20060079453A1, “Hla binding peptides and their uses” (priority 2002, published 2006).
pIC50: −log10 of the molar value.

What was measured:
Assay in all cases: biochemical
Type in all cases: binding
HLA-DR DRB1*0802 (DR8) = HLA-DR DRB1*0802 (DR8) (Homo sapiens, UniProt P01903+P01911, A100R/A103L/A169T/F76Y/H45Y/I96F/K41T/L162R/M171V/P40S/Q125H/Q178H/Q39Y/Q99D/R218S/R42G/S66Y/V115G/W38E)
HLA-DR DRB3*0101 (DR52) = HLA-DR DRB3*0101 (DR52) (Homo sapiens, UniProt P01903+P79483)
HLA-DR DRB1*0401 (DR4) = HLA-DR DRB1*0401 (DR4) (Homo sapiens, UniProt P01903+P01911, A100K/A169T/F76Y/I96L/K127E/L162R/M171V/N62H/P40V/Q125Y/R42H/S133A/S149N/S66Y/V115G/V209L/W38E); conditions: DRB1 *0401
HLA-DR DRB1*1101 (DR11) = HLA-DR DRB1*1101 (DR11) (Homo sapiens, UniProt P01903+P01911, A100R/A169T/A87E/I96F/K41T/L162R/M171V/P40S/Q125H/Q178H/Q39Y/Q99D/R42S/S66Y/T262R/V115G/W38E); conditions: DRB1 *1101
HLA-DR DRB5*0101 (DR51) = HLA-DR DRB5*0101 (DR51) (Homo sapiens, UniProt P01903+Q30154); conditions: DRB5 *0101
HLA-DR DRB4*0101 (DR53) = HLA-DR DRB4*0101 (DR53) (Homo sapiens, UniProt P01903+P13762, G164S); conditions: DRB4 *0101
HLA-DR DRB1*0901 (DR9) = HLA-DR DRB1*0901 (DR9) (Homo sapiens, UniProt P01903+P01911, A100R/A103E/D57H/D86V/F55Y/F60I/F76Y/I96F/K127E/L162R/M171V/P40D/Q125H/Q99R/R33Q/R42F/S133A/S66N/T210M/V115G/W38K/Y107V/Y59G/Y89S); conditions: DRB1 *0901
HLA-DR DRB1*0701 (DR7) = HLA-DR DRB1*0701 (DR7) (Homo sapiens, UniProt P01903+P01911, A100R/A102G/A103Q/D57E/D86V/E43K/F76Y/K127E/L162R/M171V/P40G/Q125H/Q99D/R33Q/R42Y/R54Q/S133A/S66F/T210M/V115G/Y107V/Y59L/Y89S); conditions: DRB1 *0701
HLA-DR DRB1*1302 (DR13) = HLA-DR DRB1*1302 (DR13) (Homo sapiens, UniProt P01903+P01911, A100E/A169T/K41T/L162R/M171V/P40S/Q125H/Q178H/Q39Y/Q99D/R42S/S66N/T262R/V115G/W38E/Y61H); conditions: DRBI *1302
HLA-DR DRB1*0101 (DR1) = HLA-DR DRB1*0101 (DR1) (Homo sapiens, UniProt P01903+P01911, A100R/D57E/F55L/F60I/F76Y/I96L/L162R/M171V/P40L/Q125E/R42F/V115G/Y59C); conditions: DRB1 *0101
HLA-DR DRB1*1501 (DR15) = HLA-DR DRB1*1501 (DR15) (Homo sapiens, UniProt P01903+P01911); conditions: DRBI *1501

HLA-DR DRB1*1101 (DR11), sequence (P01903 26-254 limits assumed, other chains not shown): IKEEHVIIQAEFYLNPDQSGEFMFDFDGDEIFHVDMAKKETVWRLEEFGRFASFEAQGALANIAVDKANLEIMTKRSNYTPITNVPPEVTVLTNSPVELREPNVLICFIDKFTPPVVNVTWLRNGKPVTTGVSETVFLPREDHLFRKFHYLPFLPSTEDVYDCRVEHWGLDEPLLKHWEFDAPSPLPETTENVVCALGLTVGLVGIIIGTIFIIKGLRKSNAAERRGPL
HLA-DR DRB1*1302 (DR13), sequence (P01903 26-254 limits assumed, other chains not shown): as above

Compound	pIC50 (HLA-DR DRB1*0802 (DR8))	pIC50 (HLA-DR DRB3*0101 (DR52))	pIC50 (HLA-DR DRB1*0401 (DR4))	pIC50 (HLA-DR DRB1*1101 (DR11))	pIC50 (HLA-DR DRB5*0101 (DR51))	pIC50 (HLA-DR DRB4*0101 (DR53))	pIC50 (HLA-DR DRB1*0901 (DR9))	pIC50 (HLA-DR DRB1*0701 (DR7))	pIC50 (HLA-DR DRB1*1302 (DR13))	pIC50 (HLA-DR DRB1*0101 (DR1))	pIC50 (HLA-DR DRB1*1501 (DR15))
CC[C@H](C)[C@H](NC(=O)[C@H](CO)NC(=O)[C@H](CC(C)C)NC(=O)[C@@H](NC(=O)[C@H](CC(C)C)NC(=O)[C@@H](N)CC(=O)O)C(C)C)C(=O)N[C@@H](C)C(=O)N[C@@H](CC(C)C)C(=O)N[C@@H](CO)C(=O)N[C@H](C(=O)NCC(=O)N[C@@H](CS)C(=O)N[C@H](C(=O)NCC(=O)N[C@@H](C)C(=O)O)[C@@H](C)O)C(C)C	< 3.61	< 4.83	4.88	< 3.70	< 4.00	6.34	5.66	5.39	7.01	5.92	4.74
CC(C)C[C@H](NC(=O)[C@H](CCC(=O)O)NC(=O)[C@H](CCCCN)NC(=O)[C@H](C)NC(=O)[C@H](CC(C)C)NC(=O)[C@@H](NC(=O)[C@H](CO)NC(=O)[C@H](CCCNC(=N)N)NC(=O)[C@@H](N)CC(=O)O)C(C)C)C(=O)N[C@@H](CCCCN)C(=O)N[C@@H](Cc1ccccc1)C(=O)N[C@H](C(=O)N[C@H](C(=O)N[C@@H](CC(C)C)C(=O)N[C@H](C(=O)O)C(C)C)[C@@H](C)O)C(C)C	4.80	< 4.84		4.68	5.65	7.28	5.33	5.70	5.36		5.87
CC[C@H](C)[C@H](NC(=O)[C@@H](NC(=O)[C@@H]1CCCN1C(=O)CNC(=O)[C@@H](NC(=O)[C@H](CC(C)C)NC(=O)[C@H](CCC(=O)O)NC(=O)[C@H](C)NC(=O)[C@@H](N)Cc1ccccc1)C(C)C)C(C)C)C(=O)N1CCC[C@H]1C(=O)N[C@@H](CCC(N)=O)C(=O)N[C@@H](CC(=O)O)C(=O)N[C@@H](Cc1c[nH]c2ccccc12)C(=O)N[C@@H](CO)C(=O)N[C@H](C(=O)O)[C@@H](C)O	< 3.61	< 4.83		< 4.30	< 3.70	6.01	4.40	4.62	< 4.46	7.92	< 4.34
CC[C@H](C)[C@H](NC(=O)[C@@H](N)CC(C)C)C(=O)N[C@@H](CCSC)C(=O)N[C@@H](Cc1ccc(O)cc1)C(=O)N[C@@H](CO)C(=O)N[C@@H](C)C(=O)N[C@@H](Cc1c[nH]cn1)C(=O)N[C@@H](CC(=O)O)C(=O)N[C@H](C(=O)N[C@H](C(=O)N[C@H](C(=O)N[C@@H](CO)C(=O)NCC(=O)N[C@@H](CC(C)C)C(=O)N[C@@H](CCC(N)=O)C(=O)O)C(C)C)[C@@H](C)O)[C@@H](C)O	4.61	5.17	7.62	< 4.18	< 4.00	5.36	6.09		5.76	5.35	6.74
CSCC[C@H](NC(=O)[C@H](CC(=O)O)NC(=O)[C@H](Cc1ccc(O)cc1)NC(=O)[C@H](CC(C)C)NC(=O)[C@@H]1CCCN1C(=O)[C@H](Cc1c[nH]cn1)NC(=O)[C@@H]1CCCN1)C(=O)N[C@@H](CO)C(=O)N[C@@H](CC(C)C)C(=O)N[C@@H](CC(C)C)C(=O)N[C@@H](CCCCN)C(=O)N[C@@H](CC(N)=O)C(=O)N[C@@H](CCCNC(=N)N)C(=O)N[C@@H](Cc1ccccc1)C(=O)N[C@@H](CC(C)C)C(=O)O	4.53	< 4.87	4.68	< 4.30	5.51	5.13	4.89	4.97	4.93		6.15
CSCC[C@H](NC(=O)[C@H](CCC(=O)O)NC(=O)[C@H](CCC(N)=O)NC(=O)[C@@H]1CCCN1)C(=O)N[C@@H](CCCCN)C(=O)N[C@H](C(=O)N[C@@H](Cc1ccc(O)cc1)C(=O)N[C@@H](CO)C(=O)N[C@H](C(=O)N[C@@H](CO)C(=O)N[C@@H](Cc1ccccc1)C(=O)N[C@@H](CC(=O)O)C(=O)N[C@@H](CO)C(=O)N[C@@H](CC(C)C)C(=O)N[C@@H](Cc1ccccc1)C(=O)O)C(C)C)[C@@H](C)O	< 4.01	4.84	5.52	< 4.30	≤ 4.00	6.24	5.70		4.61	4.82	6.04
